pIC50: −log10 of the molar value.

One assay deals with HCT116 cells. Briefly: Flow cytometry cell cycle analysis of HCT116 cells. The conditions noted are these: HCT116, 16 hrs, FIG. 9. It is filed as cell-based. How it is done:
In order to test the inhibitory effect of candidate compounds on the transcription of endogenous Wnt/β-cat target genes in HCT116 cells, lysates were prepared from cells that were either treated with candidate small molecules or DMSO control. […] Cell cycle arrest of compound treated HCT116 cells was further confirmed by the reduced number of phosphorylated Histone3 (PH3) positive cells, when cultured in the presence of candidate compounds (FIG. 10).
Flow Cytometry analysis was performed on HCT116 cells treated with candidate compounds for 16 hrs per standard protocols. Briefly, compound treated cells were harvested and washed in 1×PBS followed by fixation in 70% Ethanol at 4° C. for 16 hrs. Cells were then washed in 1×PBS and treated with RNAse at 37° C. for 30′. Following extensive washes in 1×PBS, cellular DNA was stained with 500 ug/ml of Propidium Iodide at room temperature for 10′. Cells were washed again in 1×PBS and analysed by flow cytometry on a FACScalibur machine (Beckson Dickinson) at the NYU flow cytometry core facility.

Assay [1] relates to Wnt/wg pathway, Wnt-responsive luciferase reporter dTF12. Briefly: Wg-responsive dTF12 (TOP12) luciferase reporter assay in Drosophila Clone 8 cells, pathway activated by Axin dsRNA. The settings on record: Drosophila melanogaster; luciferase assay method in Drosophila Clone 8 cells. It is filed as cell-based. From the text: The present inventors employed a novel methodology that integrates a “sensitized” chemical genetic high-throughput screen (HTS) with RNA-interference (RNAi) screening technology in order to identify specific small molecule inhibitors of the Wnt pathway in Drosophila cells. As described herein, Drosophila Clone 8 cell-based assay systems developed by the present inventors to investigate the Wnt/wg pathway [DasGupta et al. Science 308, 826-33 (2005)] were used in a small molecule chemical genetic screen to identify specific inhibitors of the pathway. These cell-based assays, which are described in detail below, utilize a Wnt-responsive luciferase reporter […], the activity of which can be determined using […]. The present inventors used the small-molecule library available from the Institute of Chemistry and Cellular Biology (ICCB-Longwood) at Harvard Medical School, Boston, for the screen. […] The resultant activation of the Wnt signaling pathway is then detected by assessing the activity of the Wnt-responsive luciferase reporter gene in the cell-based assay system. […] Primary Small Molecule Screen for the Wingless Signaling Pathway in Drosophila Clone 8 Cells Set up transfection with Wg-reporter ([…]), Normalization vector (PolIII-RL) and dsRNA against […] specific towards Drosophila Axin and lacks any predicted off-targets). 1. Add 40,000 Drosophila Clone 8 cells (in 40 μL) in 384-well plate (white solid bottom, Corning Costar) using the multidrop. 2. Add 20 μLof Transfection mix in each well of a 384-well plate (Corning Costar) using the multidrop. Incubate at 25° C. for 4 days to ensure complete knockdown of Axin. Add small molecule library (Cybio Robot). Incubate 18 hrs. Assay luminescence from the samples using the “Dual-Glo” luciferase kit (Promega Inc.). Specifically, aspirate supernatant and add 20 μL media+20 μL luciferase buffer using the multidrop. Read Firefly Luciferase activity on the EnVision (Perkin Elmer plate reader). Add 20 μL of Stop&Glo using the multidrop. Read Renilla luciferase activity on the EnVision (Perkin Elmer plate reader). The Wnt signaling pathway was induced by the introduction of dsRNAs specific for Axin into Clone 8 cells comprising the Wg-responsive luciferase reporter-gene ([…]). As described herein, Axin is a scaffold protein that negatively regulates Arm/β-cat by promoting its degradation. Thereafter, a selected set of a small molecule library was added to the Clone 8 cell-based assay system to assess the effect of individual compounds on (Axin dsRNA-mediated) activated CRT by monitoring the activity of the Wg-responsive luciferase reporter-gene ([…]). […] For the purpose of Table 11 below, activity of each compound is determined using the luciferase assay method in Drosophila Clone 8 cells.

Assay [2] deals with C57 mg mouse mammary epithelial cell line. Briefly: C57mg transformation assay (Wnt3a induced). It is filed as cell-based. The conditions noted are these: 10 ng/μl, 5 days, FIG. 5. The method, then:
The transformation assay was carried out in a 96 well format. C57 mg cells were cultured in DMEM/10% FBS supplemented with purified Wnt3a protein (R&D Systems) to a final concentration of […]. Small molecule compounds dissolved in DMSO were added to a final concentration of 10 ng/μl and 0.01% DMSO. Following incubation at 37° C. for 5 days, cells were fixed with 4% Formaldehyde in 1×PBS at RT for 30 min and washed subsequently with 1×PBS at room temperature (RT) for 5 minutes (×3). Cells were then permeabilized in Blocking buffer (0.1% Triton-X/1×PBS/5% Normal Goat Serum) at RT for 20 min, subsequent to which, cells were incubated with anti-β-cat at RT for 1 hour (diluted to 1:1000 in blocking buffer). Subsequently, cells were washed with 1×PBS at RT for 10 minutes (×3) and then incubated with secondary antibody and Alexa-Fluor 488 conjugated phalloidin in Blocking buffer at RT for 1 hour. Following a brief wash in 1×PBS, cells were imaged in PBS buffer using the Array-Scan imaging system.
Transformation of the cell line is evidenced by pronounced changes in morphology, typified by formation of chord-like bundles of cells or foci-forming colonies that break off and float in the media [Wong et al. supra, 1994]. This Wnt responsive phenotype provides a mammalian assay in which to evaluate the inhibitory effect of the small molecule inhibitors identified in the primary screen. Briefly, cells are cultured in Wnt3a conditioned media in the presence or absence of a small molecule inhibitor and morphological analysis conducted using automated microscopy.
The present inventors have established a phenotypic assay using the Wnt-responsive C57 mg mouse mammary epithelial cell line to ascertain the validity of the inhibitory compounds identified in the primary screen. Specifically, addition of Wnt3a conditioned media or purified Wnt3a protein results in cellular transformation, manifested by a pronounced change from an epithelial-cell like morphology to those resembling spindle shaped cells with chord like bundles. […] The Array-Scan imagining system (Cellomics Inc.) is used to image such phenotypic changes in a 96-well plate format so as to gain a quantitative estimate of the degree of the inhibitory effect of the compounds on Wnt3a induced transformation in C57 mg cells. Quantitative analysis of the transformation phenotype is measured by the degree of actin fiber alignment (defined as anisotropy), which is expressed as the standard deviation (SD) of the angles projected by the actin fibers relative to the normal; low SD numbers reflect an increase in Wnt-responsive transformation. This approach allows for objective inferences on the cellular effects of the candidate inhibitors.

Assay [3] relates to Wnt-responsive STF16 luciferase reporter in HEK 293 cells. Briefly: Wnt-responsive STF16 luciferase reporter assay in HEK 293 cells. It is filed as cell-based, mammalian. The settings on record: 2.5 ng/μl, Wnt3a conditioned media, FIG. 4. How it is done:
HEK 293 cells were transfected with 50 ng each of the Wnt-responsive STF16 luciferase reporter and pCMV-RL normalization reporter using the Lipofectamine LTX (Invitrogen Inc.) in a 96 well plate format. Cells were cultured in DMEM/10% FBS at 37° C. for 2 days following which, they were induced with Wnt3a conditioned media for 1 day and then treated with small molecule compounds to a final concentration of 2.5 ng/μl for approximately 18 hours. Luciferase reporter activity was then measured using the Dual-Glo system (Promega Inc.) on the Envision Plate Reader. Normalized luciferase activity in response to treatment with candidate small molecule compounds was compared to that obtained from cells treated with DMSO. In order to confirm and corroborate the activity of CRT inhibitor compounds in a mammalian context, the present inventors have tested a subset of the inhibitors identified in the context of established mammalian cell lines. […] Briefly, HEK 293 cells were transfected with pSTF16-LF along with the normalization reporter, pCMV-RL and the effect of the compounds on reporter activity in such cells was determined by quantifying the luminescence from the luciferase reporter gene as described in Dasgupta et al. [supra (2005)].

As for `Cc1cc(/C=C2\SC(=O)N(c3ccccc3)C2=O)c(C)n1-c1cccnc1` [Compound C14], the cell cycle effect result in the assay on HCT116 cells is listed as “G0/G1 arrest”. Broadly, the pIC50 is the IC50 on a negative log10 scale, so that one unit is a factor of ten. High values mean a low IC50, low ones a high IC50. `CCc1ccc(-c2nc(CSCC(=O)NCc3ccccc3)c(C)o2)cc1` [IIa-66]: the negative-log IC50 (pIC50) in assay [1] was 5.45. As for `COc1cccc(/C=C2\SC(=S)N(CCCC(=O)O)C2=O)c1OC` [IIa-143], in assay [1], the pIC50 is 5.51.

Turning to `CCc1ccc(-c2nc(CSCC(=O)NCCc3ccccc3)c(C)o2)cc1` [IIa-333], in assay [1], the pIC50 was 5.38. Turning to `O=C(CCCN1C(=O)/C(=C/c2cccs2)SC1=S)Nc1ccc(O)cc1` [IIa-432], the pIC50 in assay [1] was 5.32. In assay [2], the “inhibition of Wnt3a induced C57 mg transformation” value is “significant inhibition”. The “inhibition of Wnt responsive luciferase reporter activity in HEK-293 cells” value in assay [3] is reported as “poor inhibitors”. `CCc1ccc(-c2nc(CSCC(=O)NC3CC3)c(C)o2)cc1` [IIa-719] showed a negative logarithm of the IC50 (pIC50) in assay [1] of 5.80. Further, the “inhibition of Wnt3a induced C57 mg transformation” value in assay [2] is “partial reduction”.

Regarding `Cc1ccc(-c2nc(CSCC(=O)NC3CC3)c(C)o2)cc1` [IIa-722], the pIC50 in assay [1] is 2.90. Also, in assay [2], the “inhibition of Wnt3a induced C57 mg transformation” value was “partial reduction”. The corresponding values for `CCc1ccc(-c2nc(CSCC(=O)N3CCc4ccccc43)c(C)o2)cc1` [IIa-2102] are 5.96 and “partial reduction”.

The record behind these values is patent publication US9173871B2, “Oxazole and thiazole compounds as beta-catenin modulators and uses thereof” (New York University, priority 2008, dated 2015).
